Measurements reported in patent US20090203750A1, “5-HT2C Receptor Agonists as Anorectic Agents” (priority 2005, published 2009).

Biological target: T1, human 5-HT2A receptor (Homo sapiens, UniProt P28223)
T1 construct: expressed in transfected cells; host or cells: HEK-293
Experiment: Functional activity by Ca++-flux (intracellular calcium mobilization), 5-HT2A
Type: cell-based
Conditions: not given
Procedure: The functional activity of the compounds for the human 5-HT2A, human 5-HT2B, and human 5-HT2C receptors is determined by measurement of Ca++-flux as detailed in the Examples, in transiently transfected HEK-293 cells and the results are summarized in Table I. Structures of compounds listed in Table I are given in Scheme 15.
(§1) The functional activity of compounds for the human 5-HT2A, human 5-HT2B, and human 5-HT2C receptors as agonists, partial agonists and antagonists is determined by measurement of Ca++-flux. The results are summarized in Table 1 where EC50 for different receptors are given (nM) and the ratio of activities 2A/2C and 2B/2C are also given. As noted above, other methods for assessing agonist/antagonist function of compounds for 5-HT2 family receptors are known in the art.
(§2) For these studies stably expressing lines of h5-HT2A, h5-HT2B, and h5-HT2C receptors are prepared in HEK-293 cells. For the h5-HT2A and h5-HT2C-INI receptors, stably expressing HEK-293 cell lines were constructed as previously described using a pIRES-NEO vector system (See: Rauser et al, J Pharmacol Exp Ther 299: 83-89, 2001).
(§3) Stable cell lines were plated with ˜40,000 cells/well into uncoated (3T3 cells) or poly-L-lysine coated (HEK293 cells) 96-well plates in DMEM supplemented with 5% dialyzed FBS. 16-24 hrs post-plating, the medium was aspirated and replaced with 30 μl/well of Calcium Assay Kit Component A Dye (Molecular Devices; Sunnyvale, Calif.) dissolved in 30 ml/bottle of assay buffer (2.5 mM probenecid, 20 mM Hepes, and 1× Hanks' Balanced Salt Solution (Invitrogen; Carlsbad, Calif.) (138 mM NaCl, 5.3 mM KCl, 1.3 mM CaCl2, 0.49 mM MgCl2, 0.41 mM MgSO4, 0.44 mM KH2PO4, 0.34 mM Na2HPO4) pH 7.4. Plates were incubated in the dye for 1 hr at 37° C. Dilutions were made in assay buffer as 2× stocks and added to 96-well drug plates. Fluorometric imaging was performed using a FlexStation II plate reader (Molecular Devices) reading the plate at 1.5 second intervals for 1 min. After establishing a fluorescent baseline (excitation at 485 nm and emission at 525 nm, using a […] cutoff), the FlexStation II automatically transferred 30 μl of 2× drug stocks from the drug plate to the cell plate at the 20 second time point with reading for another 40 seconds. Peak relative fluorescence units (RFU) were subtracted from baseline RFUs using SoftMax Pro (Molecular Devices) and values were imported into GraphPad Prism version 4.03 (GraphPad Software; San Diego, Calif.) for analysis. Ca++-flux studies are very convenient for initial screening of large numbers of compounds for agonist activity.
Compounds are resuspended in DMSO at a stock concentration of 2-15 mM and, for a typical agonist screen, are diluted in assay buffer to a final 2× concentration of 20 μM into drugs plates. Compounds are added in duplicate to cell plates using the FlexStation II as described to identify agonists, defined as having >10% of maximal 5-HT response. […] Generally, screens are performed twice with each determination being made in duplicate. Typical Z′-factor (Zhang et al., 1999) values for agonist screens ranged from 0.61-0.79 (5-HT2AR), 0.42-0.81 (5-HT2BR) and 0.38-0.72 (5-HT2CR); these Z′-factor values are adequate for screening studies in which N=2 determinations are made and the screens replicated for a total of N=4 determinations.
(§4) Compounds identified by primary screens to be agonists are subsequently used in concentration-response experiments to verify the initial observations and obtain agonist potencies. Concentration-response studies are performed in triplicate or quadruplicate at each concentration and repeated three times. Baseline-subtracted RFU values imported into GraphPad Prism are analyzed by non-linear regression to obtain pEC50 values, and normalized to maximal 5-HT response to obtain relative efficacies.

T1 sequence (P28223 whole entry): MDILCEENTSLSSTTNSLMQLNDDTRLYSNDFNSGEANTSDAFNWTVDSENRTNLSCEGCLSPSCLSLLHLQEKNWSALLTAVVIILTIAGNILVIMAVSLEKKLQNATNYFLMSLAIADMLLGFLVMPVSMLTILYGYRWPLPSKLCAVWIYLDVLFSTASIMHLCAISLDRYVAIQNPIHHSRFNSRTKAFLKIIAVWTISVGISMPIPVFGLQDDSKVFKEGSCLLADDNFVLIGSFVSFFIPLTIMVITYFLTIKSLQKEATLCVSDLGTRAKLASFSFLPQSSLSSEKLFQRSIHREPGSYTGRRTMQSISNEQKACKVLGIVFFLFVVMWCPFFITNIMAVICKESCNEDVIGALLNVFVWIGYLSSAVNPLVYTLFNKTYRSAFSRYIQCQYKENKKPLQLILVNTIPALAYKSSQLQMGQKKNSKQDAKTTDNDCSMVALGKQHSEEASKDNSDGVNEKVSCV

“cis-(±)-(2-Phenyl-cyclopropyl)-methylamine Hydrochloride [TKU-II-19]” was tested, and the “activity at 5-HT2A receptor” value was “poorly active”.

Same assay, conditions: Ca++-flux, HEK-293 cells; NA = not active

First: c1ccc(CN[C@@H]2C[C@H]2c2ccccc2)cc1 (racemic) [TKU-II-30, trans-(±)-Benzyl-(2-phenyl-cyclopropyl)-amine]
Second: CC(C)N[C@@H]1C[C@H]1c1ccccc1 (racemic) [TKU-II-33, trans-(±)-Isopropyl-(2-phenyl-cyclopropyl)-amine]
The EC50 of the first is 6.7-fold higher: 9790 µM for the first, 1470 µM for the second. The second is the more potent here.

`c1ccc(CNC[C@@H]2C[C@H]2c2ccccc2)cc1` (racemic) [TKU-II-36, trans-(±)-N-Benzyl-(2-phenyl-cyclopropylmethyl)-amine] and `CN[C@@H]1C[C@H]1c1ccccc1` (racemic) [TKU-II-38, trans-(±)-Methyl-(2-phenyl-cyclopropyl)-amine] are within 1.5-fold of each other in EC50: 123 µM for the first, 165 µM for the second.

Going from `CNC[C@@H]1C[C@H]1c1ccccc1` (racemic) [TKU-II-39, trans-(±)-Methyl-(2-phenyl-cyclopropylmethyl)-amine] to “cis-(±)-(2-Phenyl-cyclopropyl)-methylamine Hydrochloride [TKU-II-19]”, the EC50 falls from 3.71 µM to 0.705 µM (5.3-fold).

Compared with “trans-(+)-[2-(3-Bromo-phenyl)-cyclopropyl]-methylamine Hydrochloride [TKU-II-153-1]”, “trans-(±)-(2-Naphthalen-2-yl-cyclopropyl)-methylamine hydrochloride [TKU-II-42]” is 20-fold higher in EC50: 0.0487 µM for the first, 0.951 µM for the second.

Compared with “trans-(±)-[2-(2-Bromo-phenyl)-cyclopropyl]-methylamine Hydrochloride [TKU-II-78]”, “trans-(±)-[2-(2-Fluoro-phenyl)-cyclopropyl]-methylamine Hydrochloride [TKU-II-100]” is 48-fold lower in EC50: 0.0295 µM for the first, 0.00062 µM for the second.

Biological target: T2, human 5-HT2B receptor (Homo sapiens, UniProt P41595)
T2 construct: expressed in transfected cells; host or cells: HEK293 (ATCC CRL-1573), retroviral infection with pBabepuro-FLAG-h5-HT2BR, polyclonal line
T2 sequence (P41595 whole entry): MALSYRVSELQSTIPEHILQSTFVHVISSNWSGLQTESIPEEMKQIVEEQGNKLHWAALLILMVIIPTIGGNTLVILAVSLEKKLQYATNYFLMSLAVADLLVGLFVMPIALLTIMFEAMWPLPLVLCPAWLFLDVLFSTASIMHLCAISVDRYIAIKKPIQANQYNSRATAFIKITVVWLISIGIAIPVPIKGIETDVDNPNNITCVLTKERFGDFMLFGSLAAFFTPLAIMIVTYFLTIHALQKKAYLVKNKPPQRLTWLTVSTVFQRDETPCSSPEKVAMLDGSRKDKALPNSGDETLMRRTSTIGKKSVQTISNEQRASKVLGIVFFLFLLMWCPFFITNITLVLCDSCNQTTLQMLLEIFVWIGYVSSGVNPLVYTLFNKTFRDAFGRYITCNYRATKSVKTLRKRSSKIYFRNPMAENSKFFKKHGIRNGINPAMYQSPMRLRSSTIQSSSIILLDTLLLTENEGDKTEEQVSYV
Experiment: Functional activity by Ca++-flux (intracellular calcium mobilization), 5-HT2B
Type: cell-based
Conditions: not given

With `c1ccc(CN[C@@H]2C[C@H]2c2ccccc2)cc1` (racemic) [TKU-II-30, trans-(±)-Benzyl-(2-phenyl-cyclopropyl)-amine] the EC50 was 10700 µM.

For “cis-(±)-(2-Phenyl-cyclopropyl)-methylamine Hydrochloride [TKU-II-19]”, the “activity at 5-HT2B receptor” value was “poorly active”.

Same assay, conditions: Ca++-flux, HEK-293 cells; NA = not active; read-out: 5-HT2B human EC50

Compared with `c1ccc(CNC[C@@H]2C[C@H]2c2ccccc2)cc1` (racemic) [TKU-II-36, trans-(±)-N-Benzyl-(2-phenyl-cyclopropylmethyl)-amine], `CNC[C@@H]1C[C@H]1c1ccccc1` (racemic) [TKU-II-39, trans-(±)-Methyl-(2-phenyl-cyclopropylmethyl)-amine] is 1000-fold lower in EC50: 1020 µM for the first, 0.98 µM for the second.

Compared with “cis-(±)-(2-Phenyl-cyclopropyl)-methylamine Hydrochloride [TKU-II-19]”, “trans-(+)-[2-(3-Bromo-phenyl)-cyclopropyl]-methylamine Hydrochloride [TKU-II-153-1]” is 14-fold lower in EC50: 0.308 µM for the first, 0.0213 µM for the second.

Going from “trans-(±)-(2-Naphthalen-2-yl-cyclopropyl)-methylamine hydrochloride [TKU-II-42]” to “trans-(±)-[2-(2-Bromo-phenyl)-cyclopropyl]-methylamine Hydrochloride [TKU-II-78]”, the EC50 falls from 15.4 µM to 0.094 µM (160-fold).

“trans-(±)-[2-(2-Fluoro-phenyl)-cyclopropyl]-methylamine Hydrochloride [TKU-II-100]” gave an EC50 of 0.0002 µM.

Biological target: T3, human 5-HT2C receptor (Homo sapiens, UniProt P28335)
T3 construct: expressed in transfected cells; host or cells: HEK-293
T3 sequence (P28335 33-458): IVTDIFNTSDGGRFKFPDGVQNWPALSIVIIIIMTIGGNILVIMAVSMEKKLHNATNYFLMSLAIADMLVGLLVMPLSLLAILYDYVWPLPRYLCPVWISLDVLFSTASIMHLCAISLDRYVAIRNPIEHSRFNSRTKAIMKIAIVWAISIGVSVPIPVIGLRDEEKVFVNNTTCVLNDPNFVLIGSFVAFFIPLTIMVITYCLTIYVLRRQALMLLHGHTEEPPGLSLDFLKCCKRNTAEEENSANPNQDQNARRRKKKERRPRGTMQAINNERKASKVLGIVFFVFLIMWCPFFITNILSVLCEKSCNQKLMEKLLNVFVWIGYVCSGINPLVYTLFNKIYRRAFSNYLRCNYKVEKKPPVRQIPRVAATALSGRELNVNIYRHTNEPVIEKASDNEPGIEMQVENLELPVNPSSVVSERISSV
Experiment: Functional activity by Ca++-flux (intracellular calcium mobilization), 5-HT2C
Type: cell-based
Conditions: not given
Procedure: as §1, with “The results are summarized in Table 1 where EC50 for different receptors are given (nM) and the ratio of activities 2A/2C and 2B/2C are also given.” left out
as §2, §3
Compounds are resuspended in DMSO at a stock concentration of 2-15 mM and, for a typical agonist screen, are diluted in assay buffer to a final 2× concentration of 20 μM into drugs plates. Compounds are added in duplicate to cell plates using the FlexStation II as described to identify agonists, defined as having >10% of maximal 5-HT response. […] Generally, screens are performed twice with each determination being made in duplicate.
as §4

In the case of “cis-(±)-(2-Phenyl-cyclopropyl)-methylamine Hydrochloride [TKU-II-19]”, the “activity at 5-HT2C receptor” value is reported as “poorly active”.
“trans-(±)-[2-(2-Bromo-phenyl)-cyclopropyl]-methylamine Hydrochloride [TKU-II-78]” was tested, and the “activity at 5-HT2C receptor” value was “partial agonist activity”.
For “trans-(±)-[2-(2-Fluoro-phenyl)-cyclopropyl]-methylamine Hydrochloride [TKU-II-100]”, the “activity at 5-HT2C receptor” value was “good potency”.

Same assay, conditions: Ca++-flux, HEK-293 cells; NA = not active; read-out: 5-HT2C human EC50

`c1ccc(CN[C@@H]2C[C@H]2c2ccccc2)cc1` (racemic) [TKU-II-30, trans-(±)-Benzyl-(2-phenyl-cyclopropyl)-amine] and `CC(C)N[C@@H]1C[C@H]1c1ccccc1` (racemic) [TKU-II-33, trans-(±)-Isopropyl-(2-phenyl-cyclopropyl)-amine] are within 1.5-fold of each other in EC50: 10.5 µM for the first, 8.84 µM for the second.

Going from `c1ccc(CNC[C@@H]2C[C@H]2c2ccccc2)cc1` (racemic) [TKU-II-36, trans-(±)-N-Benzyl-(2-phenyl-cyclopropylmethyl)-amine] to `CN[C@@H]1C[C@H]1c1ccccc1` (racemic) [TKU-II-38, trans-(±)-Methyl-(2-phenyl-cyclopropyl)-amine], the EC50 falls from 7.46 µM to 2.5 µM (3-fold).

Compared with `CNC[C@@H]1C[C@H]1c1ccccc1` (racemic) [TKU-II-39, trans-(±)-Methyl-(2-phenyl-cyclopropylmethyl)-amine], “cis-(±)-(2-Phenyl-cyclopropyl)-methylamine Hydrochloride [TKU-II-19]” is 4.7-fold lower in EC50: 0.718 µM for the first, 0.152 µM for the second.

First: trans-(+)-[2-(3-Bromo-phenyl)-cyclopropyl]-methylamine Hydrochloride [TKU-II-153-1]
Second: trans-(±)-(2-Naphthalen-2-yl-cyclopropyl)-methylamine hydrochloride [TKU-II-42]
The EC50 of the first is 590-fold lower: 0.0114 µM for the first, 6.75 µM for the second.

Going from “trans-(±)-[2-(2-Bromo-phenyl)-cyclopropyl]-methylamine Hydrochloride [TKU-II-78]” to “trans-(±)-[2-(2-Fluoro-phenyl)-cyclopropyl]-methylamine Hydrochloride [TKU-II-100]”, the EC50 falls from 0.0018 µM to 0.00066 µM (2.7-fold).

Same assay, conditions: partial agonist activity

In the case of “trans-(±)-[2-(2-Bromo-phenyl)-cyclopropyl]-methylamine Hydrochloride [TKU-II-78]”, the “Emax at the 5-HT2C receptor” value is reported as 58%.

Same assay, conditions: ratio of EC50 5-HT2A / 5-HT2C

Compared with `c1ccc(CN[C@@H]2C[C@H]2c2ccccc2)cc1` (racemic) [TKU-II-30, trans-(±)-Benzyl-(2-phenyl-cyclopropyl)-amine], `CC(C)N[C@@H]1C[C@H]1c1ccccc1` (racemic) [TKU-II-33, trans-(±)-Isopropyl-(2-phenyl-cyclopropyl)-amine] is lower in 2A/2C ratio: 929.5 for the first, 166 for the second.

First: c1ccc(CNC[C@@H]2C[C@H]2c2ccccc2)cc1 (racemic) [TKU-II-36, trans-(±)-N-Benzyl-(2-phenyl-cyclopropylmethyl)-amine]
Second: CN[C@@H]1C[C@H]1c1ccccc1 (racemic) [TKU-II-38, trans-(±)-Methyl-(2-phenyl-cyclopropyl)-amine]
The 2A/2C ratio of the first is lower: 16.5 for the first, 65.8 for the second.

Going from `CNC[C@@H]1C[C@H]1c1ccccc1` (racemic) [TKU-II-39, trans-(±)-Methyl-(2-phenyl-cyclopropylmethyl)-amine] to “cis-(±)-(2-Phenyl-cyclopropyl)-methylamine Hydrochloride [TKU-II-19]”, the 2A/2C ratio falls from 5.18 to 4.64.

Compared with “trans-(+)-[2-(3-Bromo-phenyl)-cyclopropyl]-methylamine Hydrochloride [TKU-II-153-1]”, “trans-(±)-(2-Naphthalen-2-yl-cyclopropyl)-methylamine hydrochloride [TKU-II-42]” is lower in 2A/2C ratio: 4.3 for the first, 0.14 for the second.

Compared with “trans-(±)-[2-(2-Bromo-phenyl)-cyclopropyl]-methylamine Hydrochloride [TKU-II-78]”, “trans-(±)-[2-(2-Fluoro-phenyl)-cyclopropyl]-methylamine Hydrochloride [TKU-II-100]” is lower in 2A/2C ratio: 16.4 for the first, 0.94 for the second.

Same assay, conditions: ratio of EC50 5-HT2B / 5-HT2C

Going from `c1ccc(CN[C@@H]2C[C@H]2c2ccccc2)cc1` (racemic) [TKU-II-30, trans-(±)-Benzyl-(2-phenyl-cyclopropyl)-amine] to `c1ccc(CNC[C@@H]2C[C@H]2c2ccccc2)cc1` (racemic) [TKU-II-36, trans-(±)-N-Benzyl-(2-phenyl-cyclopropylmethyl)-amine], the 2B/2C ratio falls from 1020 to 137.

Compared with `CNC[C@@H]1C[C@H]1c1ccccc1` (racemic) [TKU-II-39, trans-(±)-Methyl-(2-phenyl-cyclopropylmethyl)-amine], “cis-(±)-(2-Phenyl-cyclopropyl)-methylamine Hydrochloride [TKU-II-19]” is higher in 2B/2C ratio: 1.36 for the first, 2.03 for the second.

First: trans-(+)-[2-(3-Bromo-phenyl)-cyclopropyl]-methylamine Hydrochloride [TKU-II-153-1]
Second: trans-(±)-(2-Naphthalen-2-yl-cyclopropyl)-methylamine hydrochloride [TKU-II-42]
The 2B/2C ratio of the first is lower: 1.8 for the first, 2.29 for the second.

Compared with “trans-(±)-[2-(2-Bromo-phenyl)-cyclopropyl]-methylamine Hydrochloride [TKU-II-78]”, “trans-(±)-[2-(2-Fluoro-phenyl)-cyclopropyl]-methylamine Hydrochloride [TKU-II-100]” is lower in 2B/2C ratio: 52.2 for the first, 0.3 for the second.
